# According to ChEMBL document CHEMBL5257135, “Synthesis of Artesunic Acid-Coumarin Hybrids as Potential Antimelanoma Agents” (ACS Med Chem Lett, 2023):
# Active and inactive are the calls of the source. The rule behind the calls is not given here.
# Key:
# [1] = system: SK-MEL-28; assay: Anticancer activity against human SK-MEL-28 cells assessed as reduction in cell viability incubated for 24 hrs by MTT assay; assay type: functional, cell-based; conditions: SK-MEL-28, 24 h
# [2] = Cytotoxicity against human C3PV cells assessed as reduction in cell viability incubated for 24 hrs by MTT assay; assay type: toxicity, cell-based; conditions: for IC50 at 24 h: human, C3PV cells; for IC50: c3pv
# [3] = system: SK-MEL3; assay: Anticancer activity against human SK-MEL3 cells assessed as reduction in cell viability incubated for 24 hrs by MTT assay; assay type: functional, cell-based; conditions: SK-MEL3, 24 h
# [4] = Selectivity index, ratio of IC50 for cytotoxicity against human C3PV cells to IC50 for anticancer activity against human SK-MEL3 cells; assay type: toxicity, cell-based; conditions: C3PV cells and SK-MEL3 cells, read-out: Ratio IC50
# [5] = Drug localization in human SK-MEL3 cell nucleus incubated for 24 hrs by propidium iodide staining based Confocal microscopy; assay type: ADME, subcellular; conditions: sk-mel3, 24 h
# [6] = system: SK-MEL3; assay: Anticancer activity against human SK-MEL3 cells assessed as reduction in cell viability incubated for 24 hrs in presence of Artesunic acid by MTT assay; assay type: functional, cell-based; conditions: SK-MEL3, 24 h
# [7] = system: SK-MEL-28; assay: Antiproliferative activity against human SK-MEL-28 cells assessed as reduction in cell proliferation at 0.015 uM to incubated for 24 hrs by trypan blue exclusion assay; assay type: functional, cell-based
# [8] = system: SK-MEL3; assay: Induction of apoptosis in human SK-MEL3 cells assessed as dead cells at 0.015 uM by fluorescein diacetate, propidium iodide, and Hoechst staining based confocal microscopy; assay type: functional, cell-based
# [9] = system: SK-MEL3; assay: Anticancer activity against human SK-MEL3 cells assessed as reduction in cell viability incubated for 24 hrs in presence of deferoxamine by MTT assay; assay type: functional, cell-based; conditions: SK-MEL3, 24 h
# [10] = system: C3PV; assay: Induction of apoptosis in human C3PV cells assessed as dead cells at 0.015 uM by fluorescein diacetate, propidium iodide, and Hoechst staining based confocal microscopy; assay type: functional, cell-based
# [11] = system: SK-MEL-28; assay: Induction of apoptosis in human SK-MEL-28 cells assessed as dead cells at 0.015 uM by fluorescein diacetate, propidium iodide, and Hoechst staining based confocal microscopy; assay type: functional, cell-based
# [12] = Cytotoxicity against human C3PV cells assessed as reduction in cell proliferation at 0.015 uM to incubated for 24 hrs by trypan blue exclusion assay; assay type: toxicity, cell-based
# [13] = system: SK-MEL3; assay: Antiproliferative activity against human SK-MEL3 cells assessed as reduction in cell proliferation at 0.015 uM to incubated for 24 hrs by trypan blue exclusion assay; assay type: functional, cell-based
# [14] = system: SK-MEL3; assay: Induction of apoptosis in human SK-MEL3 cells assessed as dead cells at 0.05 uM by fluorescein diacetate, propidium iodide, and Hoechst staining based confocal microscopy; assay type: functional, cell-based
# [15] = system: SK-MEL-28; assay: Induction of apoptosis in human SK-MEL-28 cells assessed as dead cells at 0.05 uM by fluorescein diacetate, propidium iodide, and Hoechst staining based confocal microscopy; assay type: functional, cell-based
# [16] = system: C3PV; assay: Induction of apoptosis in human C3PV cells assessed as dead cells at 0.05 uM by fluorescein diacetate, propidium iodide, and Hoechst staining based confocal microscopy; assay type: functional, cell-based
# [17] = Cytotoxicity against human C3PV cells assessed as reduction in cell proliferation at 0.05 uM to incubated for 24 hrs by trypan blue exclusion assay; assay type: toxicity, cell-based
# [18] = system: SK-MEL-28; assay: Antiproliferative activity against human SK-MEL-28 cells assessed as reduction in cell proliferation at 0.05 uM to incubated for 24 hrs by trypan blue exclusion assay; assay type: functional, cell-based
# [19] = system: SK-MEL3; assay: Antiproliferative activity against human SK-MEL3 cells assessed as reduction in cell proliferation at 0.05 uM to incubated for 24 hrs by trypan blue exclusion assay; assay type: functional, cell-based
Compound,IC50 [1] [µM],IC50 at 24 h [2] [µM],IC50 [3] [µM],selectivity ratio [4],other results
O=c1cc(O)c2ccccc2o1 [4-HYDROXYCOUMARINS],1.3,0.6,2.1,0.29,
C[C@H]1[C@H](OC(=O)CCC(=O)Oc2cc3ccccc3oc2=O)O[C@@H]2C[C@]3(C)CC[C@H]4[C@H](C)CC[C@@H]1[C@@]24OO3,38,5.64,1,5.64,
Nc1ccc2c(C(F)(F)F)cc(=O)oc2c1,0.98,27.4,0.93,29.4,Drug uptake [5]: Active
COc1cc2ccc(=O)oc2cc1O [SCOPOLETIN],3.43,1.6,1.5,1.1,
O=c1ccc2cc(O)c(O)cc2o1 [ESCULETIN],0.96,25.8,1.7,15.2,
O=c1ccc2cc(O)ccc2o1 [6-HYDROXYCOUMARIN],0.45,2.95,1.85,1.6,IC50 [6]: 1.14 µM
C[C@H]1[C@H](OC(=O)CCC(=O)Oc2ccc3oc(=O)ccc3c2)O[C@@H]2C[C@]3(C)CC[C@H]4[C@H](C)CC[C@@H]1[C@@]24OO3,576,132,0.015,8810,Activity [7]: inactive; Activity [8]: Active; IC50 [9]: 0.001 µM; Activity [10]: inactive; Activity [11]: inactive; Activity [12]: Non-Toxic; Activity [13]: Active
O=c1oc2ccccc2cc1O [3-HYDROXYCOUMARIN],1.2,12.5,6.8,1.8,
CC(=O)O[C@H]1C(=O)[C@@]2(C)[C@H]([C@H](OC(=O)c3ccccc3)[C@]3(O)C[C@H](OC(=O)[C@H](O)[C@@H](NC(=O)c4ccccc4)c4ccccc4)C(C)=C1C3(C)C)[C@]1(OC(C)=O)CO[C@@H]1C[C@@H]2O [PACLITAXEL],1.07,78.9,4.73,16.7,
O=c1ccc2ccc(O)cc2o1 [UMBELLIFERONE],0.48,20.9,2.1,9.9,IC50 [6]: 1.6 µM
COc1cc2ccc(=O)oc2cc1OC(=O)CCC(=O)O[C@@H]1O[C@@H]2C[C@]3(C)CC[C@H]4[C@H](C)CC[C@@H]([C@H]1C)[C@@]24OO3,132,3.05,4.1,0.74,
C[C@H]1[C@H](OC(=O)CCC(=O)Nc2ccc3c(C(F)(F)F)cc(=O)oc3c2)O[C@@H]2C[C@]3(C)CC[C@H]4[C@H](C)CC[C@@H]1[C@@]24OO3,1090,0.21,1.3,0.16,Drug uptake [5]: Active
C[C@H]1[C@H](OC(=O)CCC(=O)Oc2cc(=O)oc3ccccc23)O[C@@H]2C[C@]3(C)CC[C@H]4[C@H](C)CC[C@@H]1[C@@]24OO3,72.8,321,2.7,119,
O=c1cc(C(F)(F)F)c2ccc(O)cc2o1,1.1,2.5,0.58,4.3,
Cc1cc(=O)oc2cc(O)ccc12 [HYMECROMONE],0.58,7,1.6,4.37,
Cc1cc(=O)oc2cc(OC(=O)CCC(=O)O[C@@H]3O[C@@H]4C[C@]5(C)CC[C@H]6[C@H](C)CC[C@@H]([C@H]3C)[C@@]46OO5)ccc12,13.5,0.66,2.6,0.25,
C[C@H]1[C@H](OC(=O)CCC(=O)Oc2cc3ccc(=O)oc3cc2O)O[C@@H]2C[C@]3(C)CC[C@H]4[C@H](C)CC[C@@H]1[C@@]24OO3,97.9,,1.9,361,IC50 [2]: 686 µM
C[C@H]1[C@H](OC(=O)CCC(=O)Oc2ccc3ccc(=O)oc3c2)O[C@@H]2C[C@]3(C)CC[C@H]4[C@H](C)CC[C@@H]1[C@@]24OO3,2.2,216,0.05,4320,Activity [14]: Active; Activity [15]: Active; Activity [16]: inactive; IC50 [9]: 0.118 µM; Activity [17]: Non-Toxic; Activity [18]: inactive; Activity [19]: Active
C[C@H]1[C@H](OC(=O)CCC(=O)Oc2ccc3c(C(F)(F)F)cc(=O)oc3c2)O[C@@H]2C[C@]3(C)CC[C@H]4[C@H](C)CC[C@@H]1[C@@]24OO3,6.84,,3.6,294,IC50 [2]: 1060 µM
